According to patent US11407742B2 (THE KITASATO INSTITUTE, priority 2017, dated 2022):
In brackets after ≈: the same amount, converted by molar mass.

Key:
Solubility in solvent = assay type: physicochemical; conditions: organic solvents (methanol, DMSO)
[1] = system: Mycobacterium avium JCM 15430 strain; assay: Antibacterial activity against Mycobacterium avium complex, broth microdilution MIC (Test II-1); assay type: cell-based; conditions: JCM15430, 37° C. for 120 hours, MTT, minimum concentration inhibiting growth of 90% or more
Protocol: (§1) 6 mL of 7H9 liquid medium (Middlebrook 7H9 broth 0.5% (DIFCO), bovine serum albumin 5.0% (SIGMA), glucose 2.0% (Wako Pure Chemical Industries, Ltd.) and sodium chloride 0.85% (Kanto Chemical Co., Inc.)) containing 0.05% Tween80 (Wako Pure Chemical Industries, Ltd.) was put in a cell culturing flask T25 (Corning incorporated). To this flask was added 200 μL of a glycerol stored bacterial suspension of Mycobacterium avium (JCM15430, given by Institute of Physical and Chemical Research, Microbe Division) or 120 μL of a glycerol stored bacterial suspension of Mycobacterium intracellulare (JCM6384, given by Institute of Physical and Chemical Research, Microbe Division). The Mycobacterium avium was statically cultured at 37° C. for 96 hours, and the Mycobacterium intracellulare was statically cultured at 37° C. for 72 hours. The cultured bacterial suspension was diluted with the medium by 200 times for the Mycobacterium avium and by 600 times for the Mycobacterium intracellulare to prepare bacterial suspensions for inoculation (equivalent to 4×10^6 CFU/mL). The minimum inhibitory concentration (MIC) of each bacterial suspension was measured by carrying out a broth microdilution method in accordance with the following procedure. To a 96-well microplate, a two-stage dilution series (a final concentration of 0.001 to 50 μg/mL) of a test compound sample prepared beforehand was dispensed at 5 μL/well. Next, the bacterial suspension for inoculation was added at 95 μL/well. The culture solution in the well was mixed, and the resulting mixture cultured at 37° C. for 120 hours. After the culture, MTT reagent (SIGMA) was added at 5 μL/well, and the resulting mixture was cultured at 37° C. for 16 hours. Thereafter, a cytolytic buffer (dimethylformamide: 40.0% (nacalai tesque), acetic acid: 2.0% (Kanto Chemical Co., Inc.), sodium dodecyl sulfate: 20.0% (Wako Pure Chemical Industries, Ltd.), hydrochloric acid: 0.03 N (Kanto Chemical Co., Inc.)) at 95 μL/well, and the resulting mixture was shaken for 1 hour. For the culture solution in each well, the absorbance was measured at 570 nm, the growth inhibition rate was then calculated, and the minimum concentration indicative of inhibition of growth of 90% or more of bacteria was defined as a MIC value. Compounds 40551-F, -D, -G, -H, -I, -K and -L were used as test compounds, and ethambutol which is a known drug that is used for treatment of MAC infection was used as a comparative compound.

[2] = system: Mycobacterium intracellulare JCM 6384 strain; assay: as above; assay type: cell-based; conditions: JCM6384, 37° C. for 120 hours, MTT, minimum concentration inhibiting growth of 90% or more
Protocol: as §1

[3] = system: Mycobacterium bovis BCG Pasteur strain; assay: microbe, parasite or virus in culture; assay type: cell-based; conditions: Mycobacterium tuberculosis variant bovis BCG
[4] = system: Mycobacterium smegmatis MC^2155 strain; assay: Antibacterial activity against other nontuberculous mycobacteria, broth microdilution MIC (Test II-2); assay type: cell-based; conditions: Mycolicibacterium smegmatis, 37° C. for 30 hours, growth observed with the naked eye
Protocol: as §1
A test against Mycobacterium smegmatis as other nontuberculous mycobacteria was conducted in accordance with the following procedure. 6 mL of 7H9 liquid medium containing 0.5% Tween80 (Wako Pure Chemical Industries, Ltd.) was put in a cell culturing flask T25 (Corning incorporated). In this flask, a glycelol stored bacterial suspension of Mycobacterium smegmatis (MC^2155, acquired from American Type Culture Collection) was inoculated with one platinum loop, and statically cultured at 37° C. for 30 hours. The cultured bacterial suspension was then diluted by 200 times with the medium to prepare a bacterial suspension for inoculation (equivalent to 8×10^6 CFU/mL). The MIC of the bacterial suspension was measured by carrying out a broth microdilution method in the same procedure as in Test II-1. The bacterial suspension was cultured under conditions of 37° C. for 30 hours, and the MIC value was determined by observing growth of bacteria with the naked eye.

Compound | Solubility in solvent (Solubility in solvent) | MIC [1] [µg/mL] | MIC [2] [µg/mL] | MIC [3] [µg/mL] | MIC [4] [µg/mL]
CC(C)C(=O)Nc1ccc(C(=O)Nc2ccn(C3CCC(OC4OC(C)C(N(C)C)C(O)C4O)C(C)O3)c(=O)n2)cc1 (stereo not drawn) [Compound 40551-D] | soluble in methanol, DMSO, etc. | 12.5 (≈ 21.3 µM) | 12.5 (≈ 21.3 µM) | 6.25 (≈ 10.6 µM) | 
CC(C)=CC(=O)Nc1ccn(C2CCC(OC3OC(C)C(N(C)C)C(O)C3O)C(C)O2)c(=O)n1 (stereo not drawn) [Compound 40551-F, N-(1-(5-((5-(dimethylamino)-3,4-dihydroxy-6-methyltetrahydro-2H-pyran-2-yl)oxy)-6-methyltetrahydro-2H-pyran-2-yl)-2-oxo-1,2-dihydropyrimidine-4-yl)-3-methylbuta-2-enamide] | soluble in methanol, DMSO, etc. | 0.78 (≈ 1.62 µM) | 0.39 (≈ 0.812 µM) | 1.56 (≈ 3.25 µM) | 3.12 (≈ 6.49 µM)
CCC(C)/C=C/C(=O)Nc1ccn(C2CCC(OC3OC(C)C(N(C)C)C(O)C3O)C(C)O2)c(=O)n1 (stereo not drawn) [Compound 40551-G] | soluble in methanol, DMSO, etc. | 6.25 (≈ 12.3 µM) | 3.12 (≈ 6.13 µM) | 6.25 (≈ 12.3 µM) | 12.5 (≈ 24.6 µM)
CC1OC(n2ccc(NC(=O)c3ccc(N4C(=O)C(C)(CO)NC4(C)C)cc3)nc2=O)CCC1OC1OC(C)C(N(C)C)C(O)C1O (stereo not drawn) [Compound 40551-H] | soluble in methanol, DMSO, etc. | 12.5 (≈ 19 µM) | 1.56 (≈ 2.37 µM) | 0.39 (≈ 0.592 µM) | 1.56 (≈ 2.37 µM)
C/C=C(\C)C(=O)Nc1ccn(C2CCC(OC3OC(C)C(N(C)C)C(O)C3O)C(C)O2)c(=O)n1 (stereo not drawn) [Compound 40551-I, (E)-N-(1-(5-((5-(dimethylamino)-3,4-dihydroxy-6-methyltetrahydro-2H-pyran-2-yl)oxy)-6-methyltetrahydro-2H-pyran-2-yl)-2-oxo-1,2-dihydropyrimidin-4-yl)-2-methylbuta-2-enamide] | soluble in methanol, DMSO, etc. |  | 25 (≈ 52 µM) | 6.25 (≈ 13 µM) | 
CC(C)CC(=O)Nc1ccn(C2CCC(OC3OC(C)C(N(C)C)C(O)C3O)C(C)O2)c(=O)n1 (stereo not drawn) [Compound 40551-K] | soluble in methanol, DMSO, etc. | 25 (≈ 51.8 µM) | 6.25 (≈ 13 µM) | 6.25 (≈ 13 µM) | 25 (≈ 51.8 µM)
CC(C)/C=C/C(=O)Nc1ccn(C2CCC(OC3OC(C)C(N(C)C)C(O)C3O)C(C)O2)c(=O)n1 (stereo not drawn) [Compound 40551-L, (E)-N-(1-(5-((5-(dimethylamino)-3,4-dihydroxy-6-methyltetrahydro-2H-pyran-2-yl)oxy)-6-methyltetrahydro-2H-pyran-2-yl)-2-oxo-1,2-dihydropyrimidin-4-yl)-4-methylpenta-2-enamide] | soluble in methanol, DMSO, etc. | 3.12 (≈ 6.31 µM) | 0.78 (≈ 1.58 µM) | 1.56 (≈ 3.15 µM) | 3.12 (≈ 6.31 µM)
CC[C@@H](CO)NCCN[C@@H](CC)CO [Ethambutol, reference compound] |  | 12.5 (≈ 61.2 µM) | 3.12 (≈ 15.3 µM) | 1.56 (≈ 7.64 µM) | 0.78 (≈ 3.82 µM)
